Assay results taken from PMC2151519 (The Journal of General Physiology, 2006).

Key:
Experiment in all cases: whole-cell patch clamp, outward current, CHO-K1
Format in all cases: cell-based
TRPM6 = TRPM6 (Homo sapiens, UniProt Q9BX84)
TRPM6/7 = TRPM6/7 (Homo sapiens; Mus musculus, UniProt Q923J1+Q9BX84)
TRPM7 = TRPM7 (Mus musculus, UniProt Q923J1)
TRPM7, sequence (Q923J1 whole entry): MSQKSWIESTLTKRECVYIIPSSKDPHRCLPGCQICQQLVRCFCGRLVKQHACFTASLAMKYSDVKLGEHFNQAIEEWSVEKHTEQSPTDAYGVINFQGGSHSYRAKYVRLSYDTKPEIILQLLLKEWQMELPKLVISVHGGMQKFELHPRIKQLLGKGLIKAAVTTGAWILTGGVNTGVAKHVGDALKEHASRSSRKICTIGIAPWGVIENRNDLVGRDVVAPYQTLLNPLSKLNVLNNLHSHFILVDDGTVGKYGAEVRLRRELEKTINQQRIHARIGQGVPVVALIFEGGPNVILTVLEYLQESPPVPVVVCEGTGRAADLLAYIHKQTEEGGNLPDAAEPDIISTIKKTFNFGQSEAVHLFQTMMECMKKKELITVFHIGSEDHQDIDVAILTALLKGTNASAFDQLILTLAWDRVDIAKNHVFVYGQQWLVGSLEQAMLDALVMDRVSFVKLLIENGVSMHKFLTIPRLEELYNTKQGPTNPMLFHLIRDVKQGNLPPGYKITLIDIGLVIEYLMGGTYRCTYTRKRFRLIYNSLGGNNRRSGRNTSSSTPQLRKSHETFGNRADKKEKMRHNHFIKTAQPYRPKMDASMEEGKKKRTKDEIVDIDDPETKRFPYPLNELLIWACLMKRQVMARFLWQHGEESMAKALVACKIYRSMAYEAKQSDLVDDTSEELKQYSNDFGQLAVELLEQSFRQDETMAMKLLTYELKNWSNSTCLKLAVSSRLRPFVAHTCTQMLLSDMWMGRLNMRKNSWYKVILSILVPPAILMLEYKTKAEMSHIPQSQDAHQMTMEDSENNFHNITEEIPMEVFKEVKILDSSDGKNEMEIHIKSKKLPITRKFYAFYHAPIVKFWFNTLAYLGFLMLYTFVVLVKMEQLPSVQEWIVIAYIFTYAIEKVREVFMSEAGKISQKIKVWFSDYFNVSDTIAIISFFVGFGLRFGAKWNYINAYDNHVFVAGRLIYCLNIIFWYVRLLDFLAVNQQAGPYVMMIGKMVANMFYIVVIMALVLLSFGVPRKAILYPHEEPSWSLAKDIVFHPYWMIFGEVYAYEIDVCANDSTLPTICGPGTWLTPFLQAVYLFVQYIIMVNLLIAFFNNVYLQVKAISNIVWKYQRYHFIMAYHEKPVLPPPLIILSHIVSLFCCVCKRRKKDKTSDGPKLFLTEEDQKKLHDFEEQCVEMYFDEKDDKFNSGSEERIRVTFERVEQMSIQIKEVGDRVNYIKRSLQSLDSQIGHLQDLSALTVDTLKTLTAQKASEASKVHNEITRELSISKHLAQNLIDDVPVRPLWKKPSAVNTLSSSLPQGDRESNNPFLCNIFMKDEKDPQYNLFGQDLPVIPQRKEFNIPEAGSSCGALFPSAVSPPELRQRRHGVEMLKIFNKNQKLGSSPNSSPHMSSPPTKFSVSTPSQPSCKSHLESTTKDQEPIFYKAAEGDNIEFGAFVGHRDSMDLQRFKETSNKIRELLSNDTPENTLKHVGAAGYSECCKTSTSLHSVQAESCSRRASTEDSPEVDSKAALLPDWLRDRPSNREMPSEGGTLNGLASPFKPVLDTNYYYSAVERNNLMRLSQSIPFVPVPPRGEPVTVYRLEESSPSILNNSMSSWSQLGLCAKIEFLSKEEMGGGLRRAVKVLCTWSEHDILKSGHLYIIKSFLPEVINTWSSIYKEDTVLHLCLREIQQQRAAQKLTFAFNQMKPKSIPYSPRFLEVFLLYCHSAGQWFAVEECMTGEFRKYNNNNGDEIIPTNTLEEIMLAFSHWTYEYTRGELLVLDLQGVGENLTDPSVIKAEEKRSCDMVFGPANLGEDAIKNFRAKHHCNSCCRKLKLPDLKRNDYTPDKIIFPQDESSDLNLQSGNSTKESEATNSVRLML

TRPM6/7, sequence (Q9BX84 whole entry): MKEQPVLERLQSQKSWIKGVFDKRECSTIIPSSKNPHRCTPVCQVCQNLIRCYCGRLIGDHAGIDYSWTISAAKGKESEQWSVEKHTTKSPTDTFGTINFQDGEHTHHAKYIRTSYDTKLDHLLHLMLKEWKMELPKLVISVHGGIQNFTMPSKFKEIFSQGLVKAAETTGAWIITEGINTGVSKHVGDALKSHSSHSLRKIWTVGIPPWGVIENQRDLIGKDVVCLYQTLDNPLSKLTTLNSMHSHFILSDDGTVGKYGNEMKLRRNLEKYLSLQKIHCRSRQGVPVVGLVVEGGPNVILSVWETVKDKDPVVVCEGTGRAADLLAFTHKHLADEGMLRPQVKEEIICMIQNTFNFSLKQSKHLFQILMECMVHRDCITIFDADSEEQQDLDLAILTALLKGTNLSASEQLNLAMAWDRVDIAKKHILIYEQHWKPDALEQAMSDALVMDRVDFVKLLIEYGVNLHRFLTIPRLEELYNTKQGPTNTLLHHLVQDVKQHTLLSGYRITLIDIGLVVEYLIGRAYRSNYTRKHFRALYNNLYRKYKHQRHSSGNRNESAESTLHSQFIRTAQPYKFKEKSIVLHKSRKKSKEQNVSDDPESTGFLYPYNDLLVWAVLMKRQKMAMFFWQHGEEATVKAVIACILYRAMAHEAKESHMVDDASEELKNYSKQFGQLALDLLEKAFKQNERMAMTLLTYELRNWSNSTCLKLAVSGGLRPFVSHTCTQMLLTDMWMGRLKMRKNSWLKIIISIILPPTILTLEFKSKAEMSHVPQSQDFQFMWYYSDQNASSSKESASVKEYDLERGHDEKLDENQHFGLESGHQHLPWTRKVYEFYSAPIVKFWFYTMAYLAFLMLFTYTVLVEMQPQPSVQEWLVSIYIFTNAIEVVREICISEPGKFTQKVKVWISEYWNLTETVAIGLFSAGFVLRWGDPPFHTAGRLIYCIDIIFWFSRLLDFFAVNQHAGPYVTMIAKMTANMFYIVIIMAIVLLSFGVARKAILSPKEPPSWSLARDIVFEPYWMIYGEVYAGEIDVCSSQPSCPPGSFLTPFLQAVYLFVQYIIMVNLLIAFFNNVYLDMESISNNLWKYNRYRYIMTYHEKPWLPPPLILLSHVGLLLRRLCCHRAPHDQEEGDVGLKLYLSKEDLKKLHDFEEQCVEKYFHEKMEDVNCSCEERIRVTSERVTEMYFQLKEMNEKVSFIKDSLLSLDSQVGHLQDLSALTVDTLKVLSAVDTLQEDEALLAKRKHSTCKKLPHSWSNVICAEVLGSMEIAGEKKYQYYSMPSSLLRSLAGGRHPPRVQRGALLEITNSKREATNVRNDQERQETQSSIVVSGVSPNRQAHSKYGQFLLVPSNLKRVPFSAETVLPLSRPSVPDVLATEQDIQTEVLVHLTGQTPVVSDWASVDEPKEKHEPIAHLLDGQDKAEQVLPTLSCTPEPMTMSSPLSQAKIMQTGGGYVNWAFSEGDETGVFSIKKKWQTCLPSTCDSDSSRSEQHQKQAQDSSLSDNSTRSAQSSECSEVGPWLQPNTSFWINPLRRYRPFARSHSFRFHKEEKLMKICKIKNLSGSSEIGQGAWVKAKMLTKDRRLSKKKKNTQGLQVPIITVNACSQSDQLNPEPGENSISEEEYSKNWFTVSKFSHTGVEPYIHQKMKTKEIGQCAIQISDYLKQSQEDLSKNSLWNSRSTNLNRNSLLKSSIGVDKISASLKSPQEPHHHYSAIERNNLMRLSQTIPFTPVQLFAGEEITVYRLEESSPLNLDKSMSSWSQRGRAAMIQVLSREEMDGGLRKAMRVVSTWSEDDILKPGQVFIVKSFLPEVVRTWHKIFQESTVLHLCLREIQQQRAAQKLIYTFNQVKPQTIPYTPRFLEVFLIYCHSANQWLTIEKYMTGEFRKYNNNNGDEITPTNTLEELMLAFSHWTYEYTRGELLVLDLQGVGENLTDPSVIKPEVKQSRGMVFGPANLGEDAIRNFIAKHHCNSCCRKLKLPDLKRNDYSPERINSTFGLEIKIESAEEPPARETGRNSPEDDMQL
TRPM6/7, sequence (Q923J1 whole entry): as the sequence (Q923J1 whole entry) above
TRPM6, sequence (Q9BX84 whole entry): as the sequence (Q9BX84 whole entry) above

NCCOB(c1ccccc1)c1ccccc1 [2-APB]
EC50 (TRPM6): 205 ± 10 µM | EC50 (TRPM6/7): 1600 ± 100 µM | IC50 (TRPM7): 178 ± 14 µM
